Measurements: ChEMBL document CHEMBL1129149, “Synthesis and biological evaluation of 4-alkoxysubstituted trinems. Part II” (1996)
Converted amounts (≈) assume the structure as drawn.

Columns and labels:
Type in all cases: functional
Staphylococcus aureus [1] = test: In vitro antibacterial activity against Staphylococcus aureus 663E strain and compared to imipenem
Clostridium perfringens = test: In vitro antibacterial activity against Clostridium perfringens 615E strain and compared to imipenem
Pseudomonas aeruginosa = test: In vitro antibacterial activity against Pseudomonas aeruginosa 1911E strain and compared to imipenem
Enterococcus faecalis = test: In vitro antibacterial activity against […] 850 strain and compared to imipenem
Escherichia coli [2] = test: In vitro antibacterial activity against Escherichia coli 1850E strain and compared to imipenem
Escherichia coli [3] = test: In vitro antibacterial activity against Escherichia coli 1919E beta-lactamase producing strain and compared to imipenem
Staphylococcus aureus [4] = test: In vitro antibacterial activity against Staphylococcus aureus 853E beta-lactamase producing strain and compared to imipenem,

SMILES | MIC (Staphylococcus aureus [1]) | MIC (Clostridium perfringens) | MIC (Pseudomonas aeruginosa) | MIC (Enterococcus faecalis) | MIC (Escherichia coli [2]) | MIC (Escherichia coli [3]) | MIC (Staphylococcus aureus [4])
C[C@@H](O)[C@H]1C(=O)N2C(C(=O)[O-])=C3[C@@H](OCCN)CCC[C@@H]3[C@H]12.[Na+] | 0.5 µg/mL | 120 µg/mL | 8 µg/mL | 8 µg/mL | 0.5 µg/mL | 0.5 µg/mL | 0.5 µg/mL
C[C@@H](O)[C@H]1C(=O)N2C(C(=O)[O-])=C3[C@@H](OCCN=[N+]=[N-])CCC[C@@H]3[C@H]12.[Na+] | 0.25 µg/mL | 30 µg/mL | > 32 µg/mL | 4 µg/mL | 8 µg/mL | 1 µg/mL | 0.5 µg/mL
C[C@@H](O)[C@H]1C(=O)N2C(C(=O)[O-])=C3[C@@H](OCC/N=C/N)CCC[C@@H]3[C@H]12.[Na+] | 0.25 µg/mL | 120 µg/mL | 32 µg/mL | 2 µg/mL | 1 µg/mL | 1 µg/mL | 0.5 µg/mL
C[C@@H](O)[C@H]1C(=O)N2C(C(=O)[O-])=C3[C@@H](OCCCN=[N+]=[N-])CCC[C@@H]3[C@H]12.[Na+] | 0.2 µg/mL | 60 µg/mL | > 32 µg/mL | 8 µg/mL | 8 µg/mL | 1 µg/mL | 0.5 µg/mL
C[C@@H](O)[C@H]1C(=O)N2C(C(=O)[O-])=C3[C@@H](OCCCO)CCC[C@@H]3[C@H]12.[Na+] | 0.2 µg/mL | 30 µg/mL | > 32 µg/mL | 8 µg/mL | 2 µg/mL | 1 µg/mL | 0.5 µg/mL
C[C@@H](O)[C@H]1C(=O)N2C(C(=O)O)=C(SCCNC=N)C[C@H]12 [IMIPENEM ANHYDROUS] | 0.12 µg/mL (≈ 0.401 µM) | 30 µg/mL (≈ 100 µM) | 4 µg/mL (≈ 13.4 µM) | 2 µg/mL (≈ 6.68 µM) | 0.5 µg/mL (≈ 1.67 µM) | 0.5 µg/mL (≈ 1.67 µM) | 0.12 µg/mL (≈ 0.401 µM)
C/C(N)=N\CCO[C@H]1CCC[C@H]2C1=C(C(=O)[O-])N1C(=O)[C@H]([C@@H](C)O)[C@@H]21.[Na+] | 1 µg/mL | 120 µg/mL | 32 µg/mL | 16 µg/mL | 1 µg/mL | 0.5 µg/mL | 2 µg/mL
C[C@@H](O)[C@H]1C(=O)N2C(C(=O)[O-])=C3[C@@H](OCCCN)CCC[C@@H]3[C@H]12.[Na+] | 0.2 µg/mL | 60 µg/mL | 16 µg/mL | 4 µg/mL | 0.5 µg/mL | 0.5 µg/mL | 0.2 µg/mL
